For assay [1], the target named is Activin receptor type-2A (Homo sapiens) (UniProt P27037). In words: Inhibition of human recombinant ACTR2 at 15 nM in presence of ATP by radiometric assay relative to control.
Assay [2] addresses Ephrin type-A receptor 4 (Homo sapiens) (UniProt P54764). In words: Inhibition of human recombinant EphA4 at 15 nM in presence of ATP by radiometric assay relative to control.
Assay [3] deals with T1, Beta-adrenergic receptor kinase 1 (Homo sapiens) (UniProt P25098).
T1 sequence (whole entry): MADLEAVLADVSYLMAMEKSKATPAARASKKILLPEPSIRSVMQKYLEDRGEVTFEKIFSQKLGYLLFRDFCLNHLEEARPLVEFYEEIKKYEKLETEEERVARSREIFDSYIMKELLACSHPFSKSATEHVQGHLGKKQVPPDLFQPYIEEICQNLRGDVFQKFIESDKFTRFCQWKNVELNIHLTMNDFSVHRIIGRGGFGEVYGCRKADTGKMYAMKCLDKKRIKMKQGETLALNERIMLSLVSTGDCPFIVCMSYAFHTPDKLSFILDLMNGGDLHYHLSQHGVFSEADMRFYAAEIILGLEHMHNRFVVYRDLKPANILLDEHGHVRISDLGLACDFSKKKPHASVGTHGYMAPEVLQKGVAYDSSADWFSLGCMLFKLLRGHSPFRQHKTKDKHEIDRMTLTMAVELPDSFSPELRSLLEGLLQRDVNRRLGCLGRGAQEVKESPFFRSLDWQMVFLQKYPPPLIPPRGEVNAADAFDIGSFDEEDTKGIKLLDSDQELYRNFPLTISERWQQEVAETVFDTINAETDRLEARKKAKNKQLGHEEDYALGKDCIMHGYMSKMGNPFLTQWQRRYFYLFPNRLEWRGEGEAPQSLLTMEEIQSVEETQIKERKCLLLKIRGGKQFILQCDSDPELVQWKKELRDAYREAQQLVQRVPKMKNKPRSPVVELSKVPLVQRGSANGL
Briefly: Inhibition of human recombinant BARK1 at 15 nM related to control ULK1.

Assay [4] concerns the target Dual specificity mitogen-activated protein kinase kinase 2 (Homo sapiens) (UniProt P36507). In words: Inhibition of human recombinant MAP2K2 at 40 nM related to control ULK1.
The target of assay [5] is Wee1-like protein kinase 2 (Homo sapiens) (UniProt P0C1S8). In words: Inhibition of human recombinant Wee1B at 40 nM in presence of ATP by radiometric assay relative to control.
For assay [6], the target named is SAFB-like transcription modulator (Homo sapiens) (UniProt Q9NWH9). Briefly: Inhibition of human recombinant MET at 40 nM related to control ULK1.
The target of assay [7] is T2, Serine/threonine-protein kinase PLK4 (Homo sapiens) (UniProt O00444).
T2 sequence (whole entry): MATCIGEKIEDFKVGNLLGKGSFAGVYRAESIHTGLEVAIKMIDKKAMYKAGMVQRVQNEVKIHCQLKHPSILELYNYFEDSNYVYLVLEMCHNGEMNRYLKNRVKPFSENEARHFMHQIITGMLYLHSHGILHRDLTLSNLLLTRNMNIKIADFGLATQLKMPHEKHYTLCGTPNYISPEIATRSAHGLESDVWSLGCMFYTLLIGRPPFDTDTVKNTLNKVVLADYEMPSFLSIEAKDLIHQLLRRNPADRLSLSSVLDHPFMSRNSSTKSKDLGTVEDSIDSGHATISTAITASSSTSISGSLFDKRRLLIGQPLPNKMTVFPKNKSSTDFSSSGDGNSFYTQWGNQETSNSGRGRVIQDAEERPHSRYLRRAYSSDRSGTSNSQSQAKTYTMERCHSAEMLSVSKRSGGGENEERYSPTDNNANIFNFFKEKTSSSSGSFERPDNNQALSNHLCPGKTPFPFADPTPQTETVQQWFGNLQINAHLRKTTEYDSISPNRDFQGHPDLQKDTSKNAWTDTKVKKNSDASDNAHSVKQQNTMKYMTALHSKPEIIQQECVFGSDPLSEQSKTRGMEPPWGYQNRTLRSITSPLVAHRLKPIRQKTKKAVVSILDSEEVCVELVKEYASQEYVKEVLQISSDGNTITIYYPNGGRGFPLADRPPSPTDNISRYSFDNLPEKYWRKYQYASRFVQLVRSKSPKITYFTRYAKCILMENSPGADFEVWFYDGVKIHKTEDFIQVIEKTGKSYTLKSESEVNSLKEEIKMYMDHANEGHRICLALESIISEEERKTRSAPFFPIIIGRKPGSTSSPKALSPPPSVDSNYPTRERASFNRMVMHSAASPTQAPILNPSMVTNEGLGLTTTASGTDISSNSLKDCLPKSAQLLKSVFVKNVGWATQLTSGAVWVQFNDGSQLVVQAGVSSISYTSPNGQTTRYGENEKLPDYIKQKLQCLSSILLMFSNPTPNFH
Briefly: Inhibition of human recombinant PLK4 at 40 nM in presence of ATP by radiometric assay relative to control.

For assay [8], the target named is T3, Serine/threonine-protein kinase Nek2 (Homo sapiens) (UniProt P51955).
T3 sequence (whole entry): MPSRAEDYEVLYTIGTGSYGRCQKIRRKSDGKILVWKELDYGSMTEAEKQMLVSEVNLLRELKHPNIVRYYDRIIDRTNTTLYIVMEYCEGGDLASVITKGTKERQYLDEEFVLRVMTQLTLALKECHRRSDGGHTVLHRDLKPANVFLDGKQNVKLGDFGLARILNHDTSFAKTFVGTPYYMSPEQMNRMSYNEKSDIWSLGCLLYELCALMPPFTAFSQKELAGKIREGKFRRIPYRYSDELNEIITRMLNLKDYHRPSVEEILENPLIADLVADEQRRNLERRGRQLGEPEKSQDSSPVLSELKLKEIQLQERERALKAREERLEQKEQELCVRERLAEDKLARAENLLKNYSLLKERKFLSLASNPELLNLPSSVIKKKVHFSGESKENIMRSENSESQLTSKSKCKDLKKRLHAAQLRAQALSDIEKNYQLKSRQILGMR
In words: Inhibition of human recombinant NEK2 at 500 nM in presence of ATP by radiometric assay relative to control.

Assay [9] addresses Serine/threonine-protein kinase PAK 1 (Homo sapiens) (UniProt Q13153). In words: Inhibition of human recombinant PAK1 at 500 nM in presence of ATP by radiometric assay relative to control.
In assay [10] the target is Serine/threonine-protein kinase Nek7 (Homo sapiens) (UniProt Q8TDX7). Briefly: Inhibition of human recombinant NEK7 at 500 nM in presence of ATP by radiometric assay relative to control.

Our source for the inhibition and fold change (FC) values is ChEMBL document CHEMBL5653631, “A Potent and Selective ULK1 Inhibitor Suppresses Autophagy and Sensitizes Cancer Cells to Nutrient Stress” (iScience, 2018).

With `CC(C)[C@H](NC(=O)c1cc(-c2cnn3cc(-c4ccc(OCCN5CCCCC5)cc4)cnc23)cs1)C(F)(F)F`, the values for the inhibition in [1] and in assay [2] were 4% and 0%, respectively. Also, the fold change (FC) in assay [3] was 0.

As to `O=C(N[C@@H](C1CC1)C(F)(F)F)c1cc(-c2cnn3cc(-c4ccc(F)cc4)cnc23)cs1`, the fold change (FC) is 0 in assay [4] and 0.22 in [6]. The inhibition amounted to 0% in assay [5] and 7% in assay [7].

With `CNC(=O)c1ccccc1Oc1nc(Nc2cc(OC)c(OC)c(OC)c2)ncc1Br`, the inhibition is 0% in assay [8], 20% in assay [9] and 0% in [10].
